Patent US20230331655A1, “HYDROXYN[…] AND METHODS OF USE THEREOF” (UNIVERSITY OF MARYLAND, BALTIMORE, priority 2020, published 2023)
Entries after “also recorded” stand apart in the source; their conditions may differ.

Columns and labels:
[1] = tested on: mice; assay: antidepressant-relevant behavioral actions after oral administration; format: in vivo, mouse
[2] = tested on: mice; assay: overt adverse effects after oral administration; format: in vivo, mouse
[3] = tested on: Male C57BL/6J mice; assay: high-dose morphine conditioned-place preference in stress-naive mice; format: in vivo, mouse; details: single 10 mg/kg i.p., morphine 5 mg/kg
From the text: (§1) Animals: Male C57BL/6J mice (8 weeks old, Jackson laboratories) were kept in a temperature and humidity-controlled environment and maintained in a 12:12 hr light/dark cycle (lights on at 7:00 AM). Mice were singly-housed for all the studies due to increased aggression following opioid administration and were randomly assigned to treatment groups.
(§2) Drugs: (2R,6R)-HNK hydrochloride was synthesized and characterized. Absolute and relative stereochemistry for (2R,6R)-HNK was confirmed by small molecule x-ray crystallography. For the intraperitoneal injections, drugs were dissolved in 0.9% saline and given in a volume of 5 ml/kg.
Morphine conditioned-place preference: The conditioned-place preference (CPP) apparatus consisted of a rectangular three-chambered box (40 cm length×30 cm width×35 cm height; Stoelting Co., Wood Dale, IL, USA) comprised of two equal sized end-chambers (20 cm×18 cm×35 cm) and a central chamber (20 cm×10 cm×35 cm). […] The CPP protocol consisted of a pre-conditioning phase, eight conditioning sessions and a post-conditioning test. […]
Conditioning phase (Days 3-6): During the morning sessions of the conditioning phase, saline was administered and mice were placed in their non-opioid assigned compartment for 40 min. […] Time spent in each compartment was measured during both pre- and post-conditioning sessions using TopScan v2.0 (CleverSys, Inc, VA, USA).

[4] = tested on: Male C57BL/6J mice; assay: naloxone-precipitated morphine withdrawal conditioned-place aversion; format: in vivo, mouse; details: 10 mg/kg i.p. 10 min before naloxone 1 mg/kg; morphine 10 mg/kg
From the text: as §1, §2
Precipitated morphine place aversion: The conditioned-place aversion (CPA) protocol was performed in a rectangular three-chambered box (40 cm length×30 cm width×35 cm height; Stoelting Co., Wood Dale, IL, USA) comprised of two equal sized end-chambers (20 cm×18 cm×35 cm) and a central chamber (20 cm×10 cm×35 cm). […] The CPA protocol consisted of a pre-conditioning phase, four saline/morphine administration days in their home cages, a conditioning phase following morphine precipitated withdrawal in the CPA apparatus and a post-conditioning test. […] Time spent in each compartment was measured during both pre- and post-conditioning sessions using TopScan v2.0 (CleverSys, Inc, VA, USA).

[5] = tested on: Male C57BL/6J mice; assay: sub-threshold social defeat stress in mice previously exposed to morphine; format: in vivo, mouse
From the text: as §1
Drugs: (2R,6R)-HNK hydrochloride was synthesized and characterized. Absolute and relative stereochemistry for (2R,6R)-HNK was confirmed by small molecule x-ray crystallography. For the intraperitoneal injections, drugs were dissolved in 0.9% saline and given in a volume of 5 ml/kg. […]
Social interaction test: Following the sub-threshold social defeat stress, on day 16, test mice were screened for susceptibility in a social interaction/avoidance choice test. […] The time spent interacting (nose within close proximity of the cage) with the “stranger” mouse versus the empty cage was analyzed using TopScan video tracking software (CleverSys, Reston, Virginia). % Social Interaction was calculated as the time spent interacting with stranger divided by the total time interacting with the end-chamber cages×100.
Sucrose preference: Following the social interaction test, mice were assessed for sucrose preference in their home cages. […]

[6] = 10 mg/kg, i.p.; cited from earlier work

N[C@@]1(c2ccccc2Cl)CCC[C@@H](O)C1=O [(2R,6R)-HNK, (2R,6R)-hydroxynorketamine]
oral doses exerting antidepressant-relevant behavioral actions [1]: 15 to 50 mg/kg | fold higher than doses required for antidepressant-relevant effects (dose without overt adverse effects) [2]: at least 9 fold | oral doses without overt adverse effects [2]: up to 450 mg/kg | development of high-dose morphine CPP [3]: did not prevent | naloxone-induced conditioned-place aversion in morphine-dependent mice [4]: prevents conditioned-place aversion; also recorded: completely prevented | stress susceptibility phenotypes / emotional deficits (social interaction, sucrose preference, female urine sniffing, untorn nestlet weight) ([5]; 10 mg/kg i.p. 2 hours after sub-threshold social defeat, mice previously exposed to morphine 10 mg/kg): reverses emotional deficits; also recorded: reversed stress susceptibility phenotypes | reinstatement of maladaptive behaviors after brief re-exposure to stress ([5]; 10 mg/kg i.p. after the first defeats, 1 min re-exposure): prevents reinstatement | estimated concentration in brain tissue [6]: < 20 µmol/kg | estimated concentration in the extracellular hippocampal space [6]: < 10 µM
